According to patent publication US9918990B2, “Substituted pyrrolo[2,3-c]pyridines and pyrazolo[3,4-c]pyridines as BET protein inhibitors” (Incyte Corporation, priority 2013, dated 2018):
pIC50: −log10 of the molar value.

Columns and labels:
BRD4-BD1 = BRD4-BD1 (Homo sapiens (Human), UniProt O60885); assay: BRD4 AlphaScreen assay, BRD4-BD1; assay type: binding; details: H4Ac4 peptide, 75 min, room temperature, read-out: BRD4 BD-1 enzyme IC50
Procedure, shortened: (§1)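 AlphaScreen read after 75 min dark incubation at room temperature, inhibitors serially diluted in DMSO and added before other components. IC50 from fit of percent control activity versus log inhibitor concentration.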

BRD4-BD2 = BRD4-BD2 (Homo sapiens (Human), UniProt O60885); assay: BRD4 AlphaScreen assay, BRD4-BD2; assay type: binding; details: H4Ac4 peptide, 75 min, room temperature, read-out: BRD4 BD-2 enzyme IC50
Procedure, shortened: as §1

KMS.12.BM cells = assay: KMS.12.BM cell viability assay (Cell Titer-GLO, ATP quantitation); assay type: cell-based; details: Homo sapiens, 72 h, 3 days, concentration required for 50% cell death, read-out: KMS cellular IC50
Procedure, shortened: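 Human myeloma KMS.12.BM cells, 5000 cells/well in RPMI with 10% FBS, were exposed to a compound concentration range for 3 days. Viability was read by Cell Titer-GLO ATP luminescence relative to untreated cells; IC50 is the concentration giving 50% cell death.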

C-myc = assay: KMS.12.BM C-myc ELISA assay; assay type: cell-based; details: Homo sapiens; KMS.12.BM cells, 2 hours, concentration required for 50% C-myc inhibition
Procedure, shortened: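 Human myeloma KMS.12.BM cells in RPMI/10% FBS were exposed to a compound concentration range for 2 h, then lysed with protease inhibitors. C-myc in clarified lysates was measured by ELISA. IC50 is the concentration giving 50% C-myc inhibition relative to untreated cells.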

Row | pIC50 (BRD4-BD1) | pIC50 (BRD4-BD2) | pIC50 (C-myc) | Compound | pIC50 (KMS.12.BM cells)
1 | > 7.00 | > 7.00 | 5.00 to 6.00 | Cn1cc(-c2ccc3oc(CNC(=O)CC4CCCC4)nc3c2Oc2ccccc2)c2cc[nH]c2c1=O [Example 109, 2-Cyclopentyl-N-{[5-(6-methyl-7-oxo-6,7-dihydro-1H-pyrrolo[2,3-c]pyridin-4-yl)-4-phenoxy-1,3-benzoxazol-2-yl]methyl}acetamide] | ≥ 6.00
2 | > 7.00 | > 7.00 | ≥ 6.00 | Cn1cc(-c2ccc3c(ncn3CCC#N)c2Oc2ccccc2)c2cc[nH]c2c1=O [Example 113, 3-[5-(6-Methyl-7-oxo-6,7-dihydro-1H-pyrrolo[2,3-c]pyridin-4-yl)-4-phenoxy-1H-benzimidazol-1-yl]propanenitrile] | ≥ 6.00
